Entries after “also recorded” stand apart in the source; their conditions may differ.
Key:
[1] = system: tumor angiogenesis on chicken embryo chorioallantoic membrane; assay: Chorioallantoic membrane (CAM) tumor model for angiogenesis; format: in vivo; conditions: administered on day 12, observed on days 14 and 16
Description: To evaluate the effect of MSNs on tumor angiogenesis, chicken embryo chorioallantoic membrane (CAM) tumor model was used. The fertilized eggs were incubated in the incubator for 10 days, then a small window was opened in the eggshell and the cancer cells were implanted on the CAM membrane near the aorta. MSN or Doxorubicin (DOX) was administered on day 12 when the tumor was formed and the angiogenesis near the tumor was observed on days 14 and 16.

[2] = system: luciferase-expressing HCT-116 cells; assay: Orthotopic colorectal cancer metastasis model, cells injected into cecum wall; conditions: 40 mg/kg twice per week, 8 administrations
Description: 2×10^6 luciferase-expressing HCT-116 cells were directly injected into the wall of the cecum with surgery to establish the orthotopic colorectal cancer metastasis model, this model spontaneously produces highly metastatic tumors in adjacent intestinal tissues, peritoneum, and distance metastasis (spleen, kidney, liver, and diaphragm). […] The tumor growth and metastasis were observed by the IVIS system once a week and body weight was observed over the study period. To assess overall survival, animals were monitored up to the point of spontaneous death or approaching moribund status.

Row | Structure (SMILES) | blood vessels near the tumor (angiogenesis) [1] | primary tumor growth and metastases (IVIS bioluminescence) [2]
1 | COc1cccc2c1C(=O)c1c(O)c3c(c(O)c1C2=O)C[C@@](O)(C(=O)CO)C[C@@H]3O[C@H]1C[C@H](N)[C@H](O)[C@H](C)O1 [DOX, Doxorubicin] | blood vessels exhibited disintegration and decreased density | –
2 | CCc1c2c(nc3ccc(OC(=O)N4CCC(N5CCCCC5)CC4)cc13)-c1cc3c(c(=O)n1C2)COC(=O)[C@]3(O)CC [IRI, irinotecan] | – | slower tumor growth rate compared to the control group; also recorded: inefficient inhibition of tumor growth and metastases

— patent US12496355B2, “Method for treating a cancer and/or cancer metastasis” (NANO TARGETING & THERAPY BIOPHARMA INC., priority 2022, dated 2025)
